{
  "source": "patent US20080200556A1",
  "about": "“Amine Compounds And Inhibiting Neurotrasmitter Reuptake” (MAYO FOUNDATION FOR MEDICAL EDUCATION AND RESEARCH, priority 2004, published 2008)",
  "key": {"[1]": {"target": "human dopamine transporter (hDAT) (Homo sapiens, UniProt Q01959)", "test": "biochemical", "protocol": "(§1) The cells were incubated in 10% CO2, 90% air at 37° C. and 100% humidity. The hNET cell cultures contained 250 μg/mL geneticin sulfate. The cells were grown to 70-80% confluency prior to harvesting.\n(§2) Cell membranes containing hSERT, hNET, or hDAT were prepared from the cell lines to assay ligand binding for each of the transporters. […] The washed cells were incubated for 5 minutes at 37° C. in 10 mL solution 1 containing 100 mM ethylene glycol-bis N,N,N′,N′-tetraacetic acid (EGTA). The cells were then scraped from the flask surface with a rubber spatula, placed into a centrifuge tube, and collected by centrifugation at 1000×g for 5 minutes at 4° C. The resulting supernatant was discarded, and the cell pellet was resuspended in 0.5 to 1.0 mL of the appropriate binding buffer (described below). The resuspended cell pellet was homogenized using a Polytron for 10 seconds at setting 6. The resulting homogenate was centrifuged at about 36,000×g for 10 minutes at 4° C. The supernatant was discarded, and the pellet was resuspended in the same volume of the appropriate binding buffer and centrifuged again. […]\nTo assess binding to the cloned HDAT, cells expressing HDAT were homogenized in 50 mM Tris-HCl with 120 mM NaCl (pH 7.4). […] Radioactivity was measured with a Beckman liquid scintillation counter (LS 5000TD). […]"}, "[2]": {"target": "T1, human serotonin transporter (hSERT) (Homo sapiens, UniProt P31645)", "T1 sequence (P31645 whole entry)": "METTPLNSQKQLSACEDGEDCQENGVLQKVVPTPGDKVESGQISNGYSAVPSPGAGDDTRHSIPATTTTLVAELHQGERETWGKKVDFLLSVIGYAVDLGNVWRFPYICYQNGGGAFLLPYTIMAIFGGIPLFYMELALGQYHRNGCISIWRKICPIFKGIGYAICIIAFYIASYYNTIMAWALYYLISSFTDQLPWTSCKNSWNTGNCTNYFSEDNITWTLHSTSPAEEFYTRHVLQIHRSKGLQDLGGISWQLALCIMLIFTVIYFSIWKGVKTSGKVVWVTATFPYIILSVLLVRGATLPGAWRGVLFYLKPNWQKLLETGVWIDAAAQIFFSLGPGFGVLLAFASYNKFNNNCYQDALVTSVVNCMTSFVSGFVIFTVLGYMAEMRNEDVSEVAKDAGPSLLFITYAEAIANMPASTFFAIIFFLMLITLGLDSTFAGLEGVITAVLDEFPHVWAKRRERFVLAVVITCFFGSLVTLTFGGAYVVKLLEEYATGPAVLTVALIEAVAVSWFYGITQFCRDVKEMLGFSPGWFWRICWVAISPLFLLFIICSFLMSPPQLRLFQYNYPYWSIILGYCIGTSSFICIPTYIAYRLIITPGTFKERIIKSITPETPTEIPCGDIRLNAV", "test": "biochemical", "protocol": "as §1, §2\n(§3) Radioligand binding assays for the indicated transporters were performed as follows. […] Radioactivity was measured with a Beckman liquid scintillation counter (LS 5000TD). […]"}, "Male Sprague-Dawley rats": {"tested_on": "Male Sprague-Dawley rats", "test": "Forced swim test in rats", "assay_type": "in vivo, rat", "settings": "i.p., imipramine 15 mg/kg, PRC025 10 mg/kg; for Time immobile (Counts/5 min) / Time swimming (Counts/5 min): mean ±SEM, *P < 0.05 vs. saline", "method": "When rats are placed in a cylinder of water from which they cannot escape, they will remain immobile in the water for the majority of the test.\nWater was changed between trials, and the procedure involved a pretest and a 5-minute test separated by 24 hours. During the pretest, rats (adapted to the experimental room for no less than 1 hour) were placed in the cylinder for 15 minutes. Following this initial exposure, the rats were dried with towels and transferred to a “drying cage” situated under a warming lamp. […] The following day, rats were transferred to the experimental room and acclimated for at least 1 hour.\nThe rat was considered immobile when floating motionless or making only those movements necessary to keep its head above the surface of the water. Scores for each behavior (swimming or immobility) were expressed as total counts per […]. Statistical analysis was performed using ANOVA followed by the Tukey test for post-hoc comparisons."}, "Male C57B1/6J mice": {"tested_on": "Male C57B1/6J mice", "test": "Tail suspension test in mice", "assay_type": "in vivo, mouse", "settings": "PRC025 10 mg/kg; for Time immobile (Counts/6 min) / Time mobile (Counts/6 min): i.p. 30 minutes before testing, imipramine 15 mg/kg (table), mean ±SEM, *P < 0.05 vs. saline", "text": "When mice are suspended by their tail, there is an initial period of agitation, followed by immobility. This test identifies antidepressant compounds, which decrease the duration of immobility.\nMice were then individually suspended by their tails 35 cm above the tabletop using an adhesive tape placed 1 cm from the tip of the tail. Behavior was scored every 5 seconds throughout the 6-minute test as either mobile or immobile. Mice were considered immobile only when hanging passively and completely motionless. Scores for each behavior were expressed as total counts per […]. Statistical analysis was performed using ANOVA followed by the Tukey test for post-hoc comparisons."}, "[3]": {"target": "T1, human serotonin transporter (hSERT)", "protocol": "as §1, §2, §3"}},
  "data": [
    {"smiles": "CNCC(c1ccc2ccccc2c1)C(O)c1ccccc1", "note": "(racemic) [Compound A, (2RS,3RS)-N-methyl-3-hydroxy-2-(2′-naphthyl)-3-phenylpropylamine]", "values": [
      {"measurement": "Kd", "setting": "[1]", "result": 134, "unit": "nM"}
    ]},
    {"smiles": "CN(C)CC(c1ccc2ccccc2c1)C(O)C1CCCCC1", "note": "(racemic) [PRC025, (2RS,3SR)-N,N-dimethyl-3-cyclohexyl-3-hydroxy-2-(2′-naphthyl)propylamine]", "values": [
      {"measurement": "Kd", "setting": "[2]", "result": 4.1, "unit": "nM"},
      {"measurement": "Kd", "setting": "[1]", "result": 54, "unit": "nM"},
      {"measurement": "Time immobile (Counts/5 min)", "setting": "Male Sprague-Dawley rats", "result": "28 ± 3* Counts/5 min"},
      {"measurement": "Time swimming (Counts/5 min)", "setting": "Male Sprague-Dawley rats", "result": "30 ± 3* Counts/5 min"},
      {"measurement": "Time immobile (Counts/6 min)", "setting": "Male C57B1/6J mice", "result": "12 ± 3* Counts/6 min"},
      {"measurement": "Time mobile (Counts/6 min)", "setting": "Male C57B1/6J mice", "result": "60 ± 3* Counts/6 min"},
      {"measurement": "binding to hSERT (in words)", "setting": "[3]", "result": "strong binding"}
    ]},
    {"smiles": "CN(C)CCCN1c2ccccc2CCc2ccccc21", "note": "[Imipramine, imipramine]", "values": [
      {"measurement": "swimming behavior versus saline (in words)", "setting": "Male Sprague-Dawley rats", "result": "statistically more swimming behavior than rats treated with saline"},
      {"measurement": "Time immobile (Counts/5 min)", "setting": "Male Sprague-Dawley rats", "result": "23 ± 3* Counts/5 min"},
      {"measurement": "Time swimming (Counts/5 min)", "setting": "Male Sprague-Dawley rats", "result": "37 ± 3* Counts/5 min"},
      {"measurement": "Time immobile (Counts/6 min)", "setting": "Male C57B1/6J mice", "result": "21 ± 4* Counts/6 min"},
      {"measurement": "Time mobile (Counts/6 min)", "setting": "Male C57B1/6J mice", "result": "51 ± 4* Counts/6 min"},
      {"measurement": "mobile behavior versus saline (in words)", "setting": "Male C57B1/6J mice; i.p., imipramine", "result": "statistically more mobile behavior than mice treated with saline"}
    ]}
  ]
}
